Where “and” joins values, the source holds several entries; their conditions need not be identical. Equal entries are not always repeated. Where two headings read alike, the source gives them in different places.
How the values were obtained:
[1] = system: ACHN; assay: NCI anticancer screening (SRB), Renal Cancer subpanel; type: cell-based, human; conditions: for GI%: 10.0 µM in one dose
[2] = system: HCT-116; assay: NCI anticancer screening (SRB), Colon Cancer subpanel; type: cell-based, human; conditions: for GI%: 10.0 µM in one dose
[3] = system: MDA-MB-231/ATCC; assay: NCI anticancer screening (SRB), Breast Cancer subpanel; type: cell-based, human; conditions: for GI%: 10.0 µM in one dose
[4] = system: SK-MEL-28; assay: NCI anticancer screening (SRB), Melanoma subpanel; type: cell-based, human; conditions: for GI%: 10.0 µM in one dose
[5] = in vitro; conditions: human
Experimental: the measured protein at the end of the drug treatment as compared to that at the beginning) indicating a net loss of cells following treatment was calculated from [(Ti − Tz)/Tz] […] = − 50.
Values were calculated for each of these three parameters if the activity level was reached; however, if the effect was not reached or exceeded, that parameter's value was expressed as more or less than the maximum or minimum concentration tested. The log GI50, log TGI, and log LC50 were then determined and defined as the mean of the logs of the individual GI50, TGI, and LC50 values. The lowest values are obtained with the most sensitive cell lines. The compound with log GI50 values −4 and <−4 was declared active.
2. In vitro cytotoxic activity towards normal fibroblast (WI-38) cells Cell Lines were obtained from the American Type Culture Collection; cells were cultured using DMEM (Invitrogen/Life Technologies) supplemented with 10% FBS (Hyclone), ten ug/ml of insulin (Sigma), and 1% penicillin–streptomycin. Cultures were removed from the incubator into a laminar flow hood, reconstituted with 3 mL of balanced salt solution without phenol red and serum, and then added to an amount equal to 10% of the culture medium volume. Cultures returned to the incubator for 2–4 h. After the incubation period, the resulting formazan crystals dissolved […]
medium volume. The absorbance was measured Spectrophotometrically at a wavelength of 570 […]
3. In vitro cyclooxygenase (COX-2) inhibition assay
The ability of the test compounds to inhibit COX-2 was determined using an enzyme immunoassay […]
manufacturer’s instructions.

[6] = system: T-47D; assay: NCI anticancer screening (SRB), Breast Cancer subpanel; type: cell-based, human; conditions: for GI%: 10.0 µM in one dose
[7] = system: HOP-62; assay: NCI anticancer screening (SRB), Non-Small Cell Lung Cancer subpanel; type: cell-based, human; conditions: for GI%: 10.0 µM in one dose
[8] = system: KM12; assay: NCI anticancer screening (SRB), Colon Cancer subpanel; type: cell-based, human; conditions: for GI%: 10.0 µM in one dose
[9] = system: MCF-7; assay: NCI anticancer screening (SRB), Breast Cancer subpanel; type: cell-based, human; conditions: for GI%: 10.0 µM in one dose
[10] = system: SNB-19; assay: NCI anticancer screening (SRB), CNS Cancer subpanel; type: cell-based, human; conditions: for GI%: 10.0 µM in one dose
[11] = system: HOP-92; assay: NCI anticancer screening (SRB), Non-Small Cell Lung Cancer subpanel; type: cell-based, human; conditions: for GI%: 10.0 µM in one dose
[12] = system: A498; assay: NCI anticancer screening (SRB), Renal Cancer subpanel; type: cell-based, human; conditions: for GI%: 10.0 µM in one dose
[13] = system: A549/ATCC; assay: NCI anticancer screening (SRB), Non-Small Cell Lung Cancer subpanel; type: cell-based, human; conditions: for GI%: 10.0 µM in one dose
[14] = system: SF-268; assay: NCI anticancer screening (SRB), CNS Cancer subpanel; type: cell-based, human; conditions: for GI%: 10.0 µM in one dose
[15] = system: Bax; assay: Apoptotic markers assay, Bax expression in MCF-7 cells; type: cell-based, human; conditions: MCF-7 cells treated at IC50 concentrations; vs untreated control = 1
Experimental: (§1) We measured the apoptosis promoter Bax levels, the apoptosis inhibitor Bcl−2, and the apoptosis coordination enzymes caspase-8 and caspase-9 [32].
(§2) The apoptotic marker method was carried out using the reported procedure using MCF-7, the cancer cell line (Supplementary Materials). […]
(cells are Plated […]
in a density of 1.2-1.8 X 10,000 cells/well in a volume of 100 µL complete growth medium + 100 µL of the tested compound per well in a 96-well plate for 24/48 h before the enzyme assay).
8. Evaluation of Bax and Bcl-2 expressions m RNA isolation was carried out using an RNeasy extraction kit, up to 1 X 107 cells. They were disrupted in Buffer RLT and homogenized. Ethanol was added to the lysate to promote the selective binding of RNA to the RNeasy membrane. Then, the sample was applied to the RNeasy […]
Mini spin column. Total RNA bound to the membrane. High-quality RNA was eluted using […]
(1 picture or pasted object on this page, not shown here)

[16] = system: LOX IMVI; assay: NCI anticancer screening (SRB), Melanoma subpanel; type: cell-based, human; conditions: for GI%: 10.0 µM in one dose
[17] = system: HCC-2998; assay: NCI anticancer screening (SRB), Colon Cancer subpanel; type: cell-based, human; conditions: for GI%: 10.0 µM in one dose
[18] = system: 786-0; assay: NCI anticancer screening (SRB), Renal Cancer subpanel; type: cell-based, human; conditions: for GI%: 10.0 µM in one dose
[19] = system: NCI-H23; assay: NCI anticancer screening (SRB), Non-Small Cell Lung Cancer subpanel; type: cell-based, human; conditions: for GI%: 10.0 µM in one dose
[20] = system: Bcl-2; assay: Apoptotic markers assay, Bcl-2 expression in MCF-7 cells; type: cell-based, human; conditions: MCF-7 cells treated at IC50 concentrations; vs untreated control = 1
Experimental: as §1, §2
photomultiplier voltage and for compensation setting adjustment to eliminate spectral overlap between the FL1 and the FL2 signals.
6. Cell cycle analysis
Breast carcinoma (MCF-7) cell was seeded at 2 × 10^5 cells/well density and incubated for 24 h in six-well plates. Foetal bovine serum (10%) was added, and the cells were incubated at 37 °C in an atmosphere of 5% CO2. The medium was replaced with 1% (v/v) DMSO containing 10.0 μM of […]
with 70% ethanol, rinsed with phosphate-buffered saline, and then stained with the DNA fluorochrome propidium iodide (PI) for 15 min at 37 °C. Then, samples were analyzed by flow cytometry using a FACSCalibur (Becton Dickinson). The cell cycle distributions were calculated using CellQuest software (Becton Dickinson).
(§3) 7. Caspase-8 and 9 activation assay
(§4) A breast carcinoma (MCF-7) cell line was obtained from ATCC. […]
allowed cells to grow at 37 °C, stimulated with the compounds to be tested for caspase-8 or caspase-9 and lysed with Cell Extraction Buffer. […]

[21] = system: caspase-9; assay: Apoptotic markers assay, caspase-9 level in MCF-7 cells; type: cell-based, human; conditions: MCF-7 cells treated at IC50 concentrations; vs untreated control = 1
Experimental: as §1, §2, §3, §4
allowed cells to grow at 37 °C, stimulated with the compounds to be tested for caspase-8 or caspase-9 and lysed with Cell Extraction Buffer. Standard Diluent Buffer was used to dilute the lysate over the range of the assay and measure human active caspase-8 or caspase-9 content. (cells are Plated in a density of 1.2-1.8 X 10,000 cells/well in a volume of 100 µL complete growth medium + 100 µL of the tested compound per well in a 96-well plate for 24/48 h before the enzyme assay).
8. Evaluation of Bax and Bcl-2 expressions m RNA isolation was carried out using an RNeasy extraction kit, up to 1 X 107 cells. They were disrupted in Buffer RLT and homogenized. Ethanol was added to the lysate to promote the selective binding of RNA to the RNeasy membrane. Then, the sample was applied to the RNeasy

[22] = system: NCI-H460; assay: NCI anticancer screening (SRB), Non-Small Cell Lung Cancer subpanel; type: cell-based, human; conditions: for GI%: 10.0 µM in one dose
[23] = system: HCT-116; design: method as in https://dtp.cancer.gov/dtpstandard/dwindex/index.jsp; conditions: ref https://dtp.cancer.gov/dtpstandard/dwindex/index.jsp; cited from earlier work
[24] = Homo sapiens, five concentrations

CS(=O)(=O)Nc1ccc(C(=O)NN=Cc2ccccc2O)cc1 [Compound 7]
GI% [1]: 46% | GI% [2]: 59% | GI% [3]: 34% | GI% [4]: 37% | IC50 [5]: 111000 nM | GI% [6]: 18% | GI% [7]: 61% | GI% [8]: 35% | GI% [9]: 21% | GI% [10]: 32% | GI% [11]: 44% | GI% [12]: 16% | GI% [13]: 11% | GI% [14]: 48% | Bax, Gene Expression (Fold Change) [15]: 5.02 fold change | GI% [16]: 53% | GI% [17]: 41% | GI% [18]: 25% | GI% [19]: 27% | Bcl2, Gene Expression (Fold Change) [20]: 0.201 fold change | Casp9, Gene Expression (Fold Change) [21]: 2.99 fold change and 2.990 fold change | GI% [22]: 21%

CCN(CC)c1ccc(C=NNC(=O)c2ccc(NS(C)(=O)=O)cc2)c(O)c1 [Compound 8]
GI% [1]: 84% | GI50 [1, 24]: 513 nM | GI% [2]: 78% | GI50 ([2]; Homo sapiens): 263 nM | GI% [3]: 62% | GI50 [3, 24]: 425 nM | GI% [4]: 77% | GI50 [4, 24]: 381 nM | IC50 [5]: 82100 nM | GI% [6]: 74% | GI50 ([6]; Homo sapiens, T47D, five concentrations): 382 nM | GI% [7]: 87% | GI50 [7, 24]: 189 nM | GI% [8]: 85% | GI50 [8, 24]: 509 nM | GI% [9]: 94% | GI50 ([9]; Homo sapiens, MCF7, five concentrations): 416 nM | GI% [10]: 65% | GI50 [10, 24]: 831 nM | GI% [11]: 61% | GI50 [11, 24]: 443 nM | GI% [12]: 81% | GI50 [12, 24]: 2230 nM | GI% [13]: 88% | GI50 [13, 24]: 1340 nM | GI% [14]: 77% | GI50 [14, 24]: 252 nM | Bax, Gene Expression (Fold Change) [15]: 5.456 fold change | GI% [16]: 100% | GI50 [16, 24]: 209 nM | GI% [17]: 62% | GI50 [17, 24]: 356 nM | GI% [18]: 98% | GI50 [18, 24]: 358 nM | GI% [19]: 77% | GI50 [19, 24]: 1160 nM | Bcl2, Gene Expression (Fold Change) [20]: 0.232 fold change | Casp9, Gene Expression (Fold Change) [21]: 3.776 fold change | GI% [22]: 97% | GI50 [22, 24]: 475 nM

C#Cc1cccc(Nc2ncnc3cc(OCCOC)c(OCCOC)cc23)c1 [Erlotinib, erlotinib]
GI50 [23]: 6310 nM

COc1cc2ncnc(Nc3ccc(F)c(Cl)c3)c2cc1OCCCN1CCOCC1 [Gefitinib, gefitinib]
GI50 [23]: 3160 nM

— paper PMC11728000, “Antitumor Activity and Multi-Target Mechanism of Phenolic Schiff Bases Bearing Methanesulfonamide Fragments: Cell Cycle Analysis and a Molecular Modeling Study” (International Journal of Molecular Sciences, 2024)
